# Measurements taken from US4542140A, “Pyridinyl substituted ketenemercaptal derivatives” (American Home Products Corporation, priority 1983, dated 1985).
# Legend:
# [1] = system: spontaneous gastric acid secretion; assay: inhibition of spontaneous gastric acid secretion in cannulated rats; assay type: in vivo, Male albino Sprague Dawley rats
# Procedure: Male albino Sprague Dawley rats (200-300 g), purchased from Canadian Breeding Laboratories, were employed. Two gastric cannulas were implanted surgically in each rat as described by L. E. Borella and F. Herr, Gastroenterology, 61, 345 (1971). The rats were used two to three weeks after the operation at a time when their food intake and weight gain were similar to the food intake and weight gain of unoperated litter mates. Before testing, the rats were deprived of food for 18 hours, but they had available a solution of 0.2% sodium chloride in 5% glucose for drinking ad libitum. Prior to each experiment, the plugs of the stomach cannulas of each rat were removed and the debris present in the stomach was flushed out with tepid saline passed through the cannulas. Thereafter, the lumen of the stomach was continuously perfused with saline introduced into the stomach through the forestomach cannula at a rate of 0.8-1.2 ml/min. The stomach perfusate flowing out of the antrum cannula was collected in 60 minutes intervals and the total acid in each collection was titrated with 0.05N sodium hydroxide employing phenol red as an indicator. After a period of acclimatization of about 60 to 90 minutes, the acid output values were recorded. On the basis of the hourly acid output, the rats were divided into equal groups so that the average acid output of all groups was similar. Saline (vehicle) or saline suspensions or solutions of the test compounds were administered intragastrically (i.g.) through the forestomach cannula, after having closed the antral cannula. During the one hour absorption period, the stomachs of the rats were not perfused. After the absorption period, perfusion of the stomachs was resumed, and the perfusates were collected hourly for three hours. The average post-treatment hourly acid outputs of the test compound groups were compared to that of the saline group and the percent inhibition of acid output was calculated. Multiple statistical comparisons between groups was done using Dunnet's t test, C. W. Dunnet, Journal of American Statistical Association, 50, 1096 (1955).
# [2] = system: gastric lesions induced by absolute alcohol; assay: gastric lesions induced in rats by absolute alcohol; assay type: in vivo, male albino rats (Sprague-Dawley); conditions: i.g., 30 minutes before absolute ethanol
# Procedure: More explicitly exemplified, the beneficial effects were evaluated as follows: food was withheld from male albino rats (180-220 g, Sprague-Dawley, Canadian Breeding Laboratories) for 18 to 19 hours, but water was freely available. Test compounds were administered intragastrically (i.g.) by stomach gavage, 30 minutes before absolute ethanol. The absolute ethanol (one milliliter) also was administered by gavage. One hour after the alcohol treatment, the rats were killed and their stomachs removed for observation. Clotted blood was removed from the surface of the mucosa, and the macroscopic lesions counted. The average scores of the treatment groups were compared individually to that of the control group and percent inhibitions of lesion formation calculated. The data was analyzed statistically according to Dunnett's t test for multiple comparisons between groups.
# The results obtained when 2-cyano-3-(methylthio)-3-[[3-pyridinyl)-methyl]thio]-2-propenoic acid methyl ester, described in example 1, was tested according to the previous method is as follows.
# [3] = 50 mg/kg/i.g., tested as hydrochloric acid addition salt
smiles,measurement,setting,value
"COC(=O)C(C#N)=C(SC)Sc1ccnnc1C [Example 3, 2-cyano-3-[(3-methyl-4-pyridazinyl)thio]-3-(methylthio)-2-propenoic acid methyl ester]",Percent Inhibition of Acid Output,[1]; [3],90%
"CSC(SCc1cccnc1)=C(C#N)C(N)=O [Example 12, 2-Cyano-3-(methylthio)-3-[[(3-pyridinyl)methyl]thio]-2-propenamide]",Percent Inhibition of Acid Output,[1]; 25 mg/kg/i.g.,27%
"COC(=O)C(C#N)=C(SC)SCc1cccnc1 [Example 1, 2-Cyano-3-(methylthio)-3-[[(3-pyridinyl)methyl]thio]-2-propenoic Acid Methyl Ester]","Gastric Ulcers Formed, % Inhibition",[2]; 5 mg/kg,61%
same,"Gastric Ulcers Formed, Score (mean ± S.E.)",[2]; 5 mg/kg,6.7 ± 2.2
same,"Gastric Ulcers Formed, % Inhibition",[2]; 10 mg/kg,100%
same,"Gastric Ulcers Formed, Score (mean ± S.E.)",[2]; 10 mg/kg,0
same,Percent Inhibition of Acid Output,[1]; 25 mg/kg/i.g.,85%
"COC(=O)C(C#N)=C(SC)SCc1cnccn1 [Example 4, 2-cyano-3-(methylthio)-3-[[(3-pyrazinyl)methyl]-thio]-2-propenoic acid methyl ester]",Percent Inhibition of Acid Output,[1]; [3],88%
"COC(=O)C(C#N)=C(SC)SCc1ccc[n+]([O-])c1 [Example 2, 2-Cyano-3-(methylthio)-3-[[(3-pyridinyl)methyl]thio]-2-propenoic Acid Methyl Ester N-oxide]",Percent Inhibition of Acid Output,[1]; 25 mg/kg/i.g.,60%
"COC(=O)C(C#N)=C(SCc1cccnc1)SCc1cccnc1 [1 (R^2 = 3-pyridinylmethyl thio), 2-cyano-3,3-bis[[(3-pyridinyl)methyl]thio]-2-propenoic acid methyl ester]",Percent Inhibition of Acid Output,[1]; 25 mg/kg/i.g.,38%
"CSC(SCc1ccncc1)=C(C#N)C(N)=O [Example 13, 2-Cyano-3-(methylthio)-3-[[(4-pyridinyl)methyl]thio]-2-propenamide]",Percent Inhibition of Acid Output,[1]; 50 mg/kg/i.g.,59%
